CCc1cccc2c3c([nH]c12)C(CC)(CC(=O)O)OCC3 (stereo unspecified)
solubility (mole fraction)
Conditions	278.15 K	283.15 K	288.15 K	293.15 K	298.15 K	303.15 K	308.15 K	313.15 K	318.15 K	323.15 K
in acetone	0.0935	0.101	0.109	0.117	0.127	0.136	0.147	0.157	0.168	0.178
in dichloromethane	0.00979	0.0124	0.0155	0.019	0.0229	0.0271	–	–	–	–
in isobutanol	0.0224	0.0265	0.0316	0.0382	0.0476	0.0594	0.0707	0.086	0.104	0.123
in isobutyl acetate	0.0428	0.0475	0.0529	0.0584	0.0649	0.07	0.0774	0.0861	0.0959	0.108
in isopentyl acetate	0.0413	0.0457	0.0509	0.0563	0.0629	0.068	0.0758	0.084	0.0944	0.105
in isopropanol	0.0267	0.0307	0.0363	0.0444	0.0547	0.0669	0.078	0.0907	0.109	0.127
in methyl acetate	0.0464	0.0519	0.0578	0.0638	0.0687	0.0769	0.0834	0.0921	0.101	0.111
in n-butanol	0.0371	0.0422	0.0485	0.0573	0.0675	0.078	0.0873	0.0994	0.117	0.135
in n-butyl acetate	0.0455	0.0507	0.0563	0.0627	0.0682	0.0748	0.0825	0.0915	0.101	0.111
in n-pentyl acetate	0.0453	0.0503	0.0558	0.0621	0.0666	0.0738	0.0803	0.0892	0.0983	0.108
in n-propanol	0.0342	0.0391	0.0452	0.0548	0.0648	0.0751	0.0849	0.0969	0.114	0.131
in toluene	0.00117	0.00147	0.0019	0.0024	0.00316	0.00394	0.00501	0.0065	0.00838	0.0108

Source: BigSolDB 2.1
